System: U-2 OS (ATCC, HTB-96) cells
Assay: Cell Painting: changes in cell morphology induced by synthesized compounds
Format: cell-based
Conditions: U-2 OS cells, 24-hour treatment; for Clustering of fingerprints (similarity of fingerprints) with known bioactives: Cell Painting, cosine similarity, FIG. 9; for Determination of bioactives: reproducibility of fingerprints and magnitude of the activity: Cell Painting feature vectors vs DMSO, 3 repeats, FIG. 8
Method: U-2 OS (ATCC, HTB-96) cells were cultured in T-75 flasks (Greiner, 658170) under McCoy's 5a medium (HIMedia, AT057), supplemented with 10% fetal bovine serum (FBS) and 1% Penicillin/Streptomycin solution, and incubated at 37° C. in a 5% CO2 atmosphere. Upon reaching 80% confluence, cells were washed, trypsinized (0.25% solution with EDTA, VWR, M143), and removed. Flasks were reseeded with one-fifth of the cell count for each passage. All cell plates reported in this paper were composed of U-2 OS from incubation lengths of five or fewer passages. 384 Black-welled plates with optically clear bottoms (Corning, 6569) were seeded with U-2 OS at a density of 1,000 cells per well and cells were allowed to incubate for 24 h to ensure adherence.
Three compound plates (Thermo Scientific, AB-1056) were constructed using an initial aliquot of a 50 mM compound solution solubilized in DMSO. Each compound aliquot was then twofold serially diluted in DMSO to yield eight concentrations ranging from 50 mM to 390 μM. This process was repeated so that compound plate 1 contained each of the 16 test (cycloheptatriene) compounds and one azetidinol, compound plate 2 contained 19 esters, and compound plate 3 contained the diazo compounds. Vehicle treatments were included in the plate design as DMSO-containing wells (around 200) with no added compound. Staurosporine diluted to 500 μM in DMSO was included on the plate as a positive control to test the transfer of compounds from pin transfer.
After a 24 h incubation period, untreated cell-containing plates and the compound plate were each fitted into a Library Copier, and a sterile Multi-Blot Replicator (V and P Scientific) was used to transfer a 100 nL volume from each well of the 384 well compound plate into the culture media (50 μL) of a corresponding well on the 384 well cell plate. These cell plates were reintroduced to a 37° C., 5% CO2 atmosphere for the duration of the 24-hour treatment period.
1 L of Hank's Buffered Saline Solution (HBSS) (1× from 10×) was prepared using 100 mL HBSS (10×) and diluted with 900 mL deionized water. The pH of the solution was adjusted to 7.2 with aqueous NaOH and filtered through a 0.2-micron filter. A 1% w/v solution of BSA (VWR, 0332) was prepared in 1×HBSS using 150 mg BSA, dissolved in 15 mL HBSS. The solution was filtered through a 0.2-micron filter. Live-cell MitoTracker (Thermo Fisher, M22426) staining solution was prepared using 6.5 μL of MitoTracker staining solution from a stock of 1 mM MitoTracker and dissolved in 13 mL of pre-warmed cell culture medium (RPMI) for a final concentration of 500 nM.
Staining dyes: a. […]

| SMILES | Clustering of fingerprints (similarity of fingerprints) with known bioactives | Determination of bioactives: reproducibility of fingerprints and magnitude of the activity |
| --- | --- | --- |
| CC(=O)O[C@H]1C(=O)[C@@]2(C)[C@H]([C@H](OC(=O)c3ccccc3)[C@]3(O)C[C@H](OC(=O)[C@H](O)[C@@H](NC(=O)c4ccccc4)c4ccccc4)C(C)=C1C3(C)C)[C@]1(OC(C)=O)CO[C@@H]1C[C@@H]2O [taxol] | cluster together |  |
| CC(C)(C)OC(=O)n1cc(C23C=CC=CC=C2[C@@]2(CN4CCCC[C@H]42)OC3=O)c2ccccc21 (stereo partly shown) [Compound 1-1-3] |  | showed reproducible fingerprints and magnitude of the activity |
| O=C1O[C@]2(CN3CCCC[C@H]32)C2=CC=CC=C[C@@]12c1ccsc1 [Compound 1-1-4] |  | showed reproducible fingerprints and magnitude of the activity |
| CC[C@]1(O)C[C@H]2CN(CCc3c([nH]c4ccccc34)[C@@](C(=O)OC)(c3cc4c(cc3OC)N(C=O)[C@H]3[C@@](O)(C(=O)OC)[C@H](OC(C)=O)[C@]5(CC)C=CCN6CC[C@]43[C@@H]65)C2)C1 [vincristine] | cluster together |  |
